From ChEMBL document CHEMBL3352035, “Design and synthesis of new 7-(N-substituted-methyl)-camptothecin derivatives as potent cytotoxic agents” (Bioorg Med Chem Lett, 2014)

Tests used:
KB = assay: Cytotoxicity against human KB cells after 72 hrs sulforhodamine B colorimetric assay
A549 [1] = assay: Cytotoxicity against human A549 cells after 72 hrs sulforhodamine B colorimetric assay; conditions: A549, 72 h
cells = conditions: Homo sapiens, KBVIN, 72 h
Description: Cytotoxicity against multidrug-resistant human KBVIN cells after 72 hrs sulforhodamine B colorimetric assay

MDA-MB-231 = assay: cells; conditions: Homo sapiens, MDA-MB-231, 72 h
Description: Cytotoxicity against human MDA-MB-231 cells after 72 hrs sulforhodamine B colorimetric assay

A549 [2] = assay: Ratio of topotecan IC50 to compound IC50 for human A549 cells after 72 hrs sulforhodamine B colorimetric assay; type: functional
[3] = Ratio of topotecan IC50 to compound IC50 for multidrug-resistant human KBVIN cells after 72 hrs sulforhodamine B colorimetric assay; type: functional

Row | Structure (SMILES) | IC50 (KB) | IC50 (A549 [1]) | IC50 (cells) | IC50 (MDA-MB-231) | Ratio IC50 (A549 [2]) | Ratio IC50 [3]
1 | CC[C@@]1(O)C(=O)OCc2c1cc1n(c2=O)Cc2c-1nc1ccccc1c2CN(C(C)C)C(C)C | 813 nM | 534 nM | 1060 nM | 1110 nM | – | –
2 | CC[C@@]1(O)C(=O)OCc2c1cc1n(c2=O)Cc2c-1nc1ccccc1c2CNCc1ccccc1 | 180 nM | 122 nM | 117 nM | 337 nM | – | –
3 | CC[C@@]1(O)C(=O)OCc2c1cc1n(c2=O)Cc2c-1nc1ccccc1c2CNc1cccc2ccccc12 | 61.5 nM | 36.2 nM | 78 nM | 64 nM | – | –
4 | CC[C@@]1(O)C(=O)OCc2c1cc1n(c2=O)Cc2c-1nc1ccccc1c2CN1CCCC1 | 37.1 nM | 15.5 nM | 20.8 nM | 60.9 nM | – | –
5 | CC[C@@]1(O)C(=O)OCc2c1cc1n(c2=O)Cc2c-1nc1ccccc1c2CNc1ccc(Cl)cc1 | 39.7 nM | 39.1 nM | 12.9 nM | 64.4 nM | – | –
6 | CC[C@@]1(O)C(=O)OCc2c1cc1n(c2=O)Cc2c-1nc1ccccc1c2CNc1ccc(F)cc1 | 5 nM | 6.3 nM | 13.2 nM | 30 nM | 7 | 7
7 | CC[C@@]1(O)C(=O)OCc2c1cc1n(c2=O)Cc2c-1nc1ccccc1c2CNc1ccc(Br)cc1 | 82.1 nM | 59.2 nM | 63.3 nM | 114 nM | – | –
8 | CC[C@@]1(O)C(=O)OCc2c1cc1n(c2=O)Cc2c-1nc1ccccc1c2CNC1CCCCC1 | 36.2 nM | 18.8 nM | 16.5 nM | 53.2 nM | – | –
9 | CC[C@@]1(O)C(=O)OCc2c1cc1n(c2=O)Cc2c-1nc1ccccc1c2CNc1ccc(OC)cc1 | 75.8 nM | 47 nM | 77.3 nM | 84.2 nM | – | –
10 | CC[C@@]1(O)C(=O)OCc2c1cc1n(c2=O)Cc2c-1nc1ccccc1c2CNc1ccccc1 | 78.3 nM | 53.2 nM | 47.9 nM | 78.1 nM | – | –
11 | CC[C@@]1(O)C(=O)OCc2c1cc1n(c2=O)Cc2c-1nc1ccccc1c2CN1CCN(C)CC1 | 89.5 nM | 62.2 nM | 274 nM | 110 nM | – | –
12 | CC(=O)O[C@H]1C(=O)[C@@]2(C)[C@H]([C@H](OC(=O)c3ccccc3)[C@]3(O)C[C@H](OC(=O)[C@H](O)[C@@H](NC(=O)c4ccccc4)c4ccccc4)C(C)=C1C3(C)C)[C@]1(OC(C)=O)CO[C@@H]1C[C@@H]2O [PACLITAXEL] | 3.9 nM | 5.7 nM | 1440 nM | 6.6 nM | – | –
13 | CC[C@@]1(O)C(=O)OCc2c1cc1n(c2=O)Cc2c-1nc1ccccc1c2CNc1ccccc1Cl | 37.1 nM | 17 nM | 12.8 nM | 57.6 nM | – | –
14 | CCCNCc1c2c(nc3ccccc13)-c1cc3c(c(=O)n1C2)COC(=O)[C@]3(O)CC | 15 nM | 4.8 nM | 21.7 nM | 31.6 nM | 7 | 7
15 | CC[C@@]1(O)C(=O)OCc2c1cc1n(c2=O)Cc2c-1nc1ccccc1c2CNc1cccc(Cl)c1 | 71.3 nM | 50.4 nM | 68.8 nM | 96.1 nM | – | –
16 | CC[C@@]1(O)C(=O)OCc2c1cc1n(c2=O)Cc2c-1nc1ccccc1c2CN1CCCCC1 | 49.9 nM | 21.9 nM | 20.5 nM | 69.9 nM | – | –
17 | CC[C@@]1(O)C(=O)OCc2c1cc1n(c2=O)Cc2c-1nc1ccccc1c2CNc1ccccc1OC | 4.6 nM | 2.3 nM | 14.9 nM | 26.4 nM | 7 | 7
18 | CC[C@@]1(O)C(=O)OCc2c1cc1n(c2=O)Cc2c-1nc1ccccc1c2CNc1ccc(C)cc1 | 81.7 nM | 58.7 nM | 79.5 nM | 92.7 nM | – | –
19 | CC[C@@]1(O)C(=O)OCc2c1cc1n(c2=O)Cc2c-1nc1ccccc1c2CNc1ccccn1 | 78.6 nM | 51.4 nM | 70.6 nM | 108 nM | – | –
20 | CC[C@@]1(O)C(=O)OCc2c1cc1n(c2=O)Cc2c-1nc1ccccc1c2CNCCO | 208 nM | 150 nM | 183 nM | 378 nM | – | –
